Measured values as given in patent US9932300B2, “N,N′-diarylurea compounds and N,N′-diarylthiourea compounds as inhibitors of translation initiation” (President and Fellows of Harvard College, priority 2009, dated 2018).
Several values for one entry are separate records, joined by “and”; a condition that tells them apart may be missing. Identical values can stand only once.

Tested on: eIF2-GTP-Met-tRNAi ternary complex
Experiment: Ternary complex assay (dual luciferase, firefly/renilla ratio) in stable KLN-tTA/pBISA-DL(ATF-4) cells; HTS and hit confirmation
Format: cell-based, mouse
Parameters: Activity 10 uM / Activity 2.5 uM / Activity 5 uM: unit not given here
Conditions: for Activity 2.5 uM: compound at 2.5 uM; for Activity 2.5 uM / Activity 10 uM / Activity 5 uM: confirmed hits of the screen (Table 5); for Activity 10 uM: compound at 10 uM; for Activity 5 uM: compound at 5 uM
Text: For assay development, a bi-directional plasmid was designed in which a common promoter/enhancer complex drives the transcription of firefly luciferase (F-luc) ORF fused to the 5′ untranslated region (UTR) of ATF-4, and of the renilla luciferase (R-luc) ORF fused to a 90-nucleotide 5′ UTR derived from the plasmid (FIG. 6A). Because the tetracycline-regulated transactivator ((tTA), required for driving transcription from this vector) is not normally expressed in the mammalian cells, stable KLN cancer cells were constructed that expressed tTA (KLN-tTA).
The KLN-tTA colonies that drove expression of reporter genes from pBISA-DL plasmid were selected by transient transfection and dual luciferase assay. One of these KLN-tTA cell lines was transfected with the pBISA-DL^(ATF-4) expression vector, stable colonies were selected by dual luciferase assay and expanded. To determine if reduced availability of the eIF2*GTP*Met-tRNAi ternary complex increased the translation of firefly luciferase and decreased translation of renilla luciferase, selected KLN-tTA/pBISA-DL^(AFT-4) colonies were treated with thapsigargin (TG) or tunicamycin (TU), two agents known to cause phosphorylation of eIF2α.
This assay was then adapted for high throughput screening in 96 and 384 well plates. This was done by evaluating the cell density, length of exposure to compounds, DMSO tolerance and optimum firefly and renilla substrate. We then challenged these cells with thapsigargin or DMSO. […] Cell-based assays usually have higher variation than homogeneous in vitro assays due to position effect in the plate, and other variables associated with handling of cells and the plates.
Screening was conducted in 384 well white opaque plates (Nalge Nunc), 100 μl volume RPMI+10% fetal bovine serum. Cells were plated at the sub-confluent density of 10,000 cells/well, and allowed to attach for a period of 16-18 hours at 37° C., 5% CO2. Compounds were added as 1 μl of a 1 mM DMSO stock solution for a final screening concentration of 10 μM, using low-volume tips for transfer (Molecular Bioproducts). Cells were then incubated in the presence of compound for an additional sixteen hours, again at 37° C., 5% CO2. Following incubation 70 μl of the culture medium was removed from each well to allow for reagent addition and plates were allowed to equilibrate to room temperature for thirty minutes. Firefly luciferase reporter activity was then read by the addition of thirty microliters of Dual Glo Luciferase reagent (Promega), followed by one hour incubation at room temperature to allow for adequate signal buildup. Luminescence counting was conducted on a Microbeta Trilux using a 1 second read time. Renilla luciferase reporter activity was measured following addition of 30 μl Stop and Glo Luciferase reagent (Promega) and incubation identical to the one carried out for the firefly luciferase one.
Compound scores were interpreted as firefly luciferase activity divided by renilla luciferase activity, normalized to the plate's DMSO control. […] All data analysis was conducted using the BioAssay HTS software package (CambridgeSoft).
102,709 compounds in the NCI Open Chemical Repository were then screened using this HTS assay. […] Initial hits were confirmed by repeating the same dual luciferase assay in 96 well plates. Briefly, 20,000 cells/well were plated in triplicate for each concentration (10, 5 and 2.5 μM) of the compounds.

CCN(CC)C(=S)[S-].CCN(CC)C(=S)[S-].[Cu+2] [Compound 1337]
Activity 2.5 uM: 7.15

Cc1nc(Nc2cccc(Cl)c2)c2cnn(-c3ccc(Cl)cc3)c2n1 [Compound 1626]
Activity 2.5 uM: 0.79
Activity 10 uM: 5.31

O=C(Nc1ccc(Cl)c(C(F)(F)F)c1)Nc1ccc2nnsc2c1 [Compound 1780]
Active or inactive N,N′-diarylurea (ternary complex assay) (designation in figure legend): active

c1ccc(NNc2ccc3ccccc3n2)cc1 [Compound 1874]
Activity 2.5 uM: 4.27
Activity 10 uM: 3.99

O=C(CCl)Nc1cc(Cl)ccc1Cl [Compound 8275]
Activity 2.5 uM: 0.81

Cc1ccc2c(c1)sc(-c1ccc(N(C)C)cc1)[n+]2C.[Cl-] [Compound 11235]
Activity 2.5 uM: 4.88 and 7.3

CCCCCCCC[N+](CCCC)(CCCC)CCCC.O=C([O-])CCl [Compound 12134]
Activity 2.5 uM: 8.83

CCOC(=O)N(C(=O)c1ccc([As]=O)cc1)C(=O)c1ccc([As]=O)cc1 (stereo not drawn) [Compound 12750]
Activity 2.5 uM: 1.79
Activity 10 uM: 4.9

CCN(CC)CCCC(C)n1c(SC)nc2cc(Cl)ccc21 (stereo not drawn) [Compound 13268]
Activity 2.5 uM: 1.46
Activity 10 uM: 3.18

CCCCCCCCC(N)CCCCCCCC.Cl [Compound 14209]
Activity 2.5 uM: 0.85
Activity 10 uM: 14.32

Cc1cc(/C=C/C2CCC3CC(C)CCC3N2CCO)c(C)n1-c1ccccc1 (stereo not drawn) [Compound 14238]
Activity 2.5 uM: 1.37
Activity 10 uM: 3.02

CC(=O)NC1=CC(=O)C=CC1=Nc1ccc(N(C)C)cc1C [Compound 14739]
Activity 2.5 uM: 1.12
Activity 10 uM: 4.06

Cc1c(Cl)ccc2c(C(O)CNCc3ccccc3)cc(-c3ccc(Cl)cc3)nc12 (stereo not drawn) [Compound 14755]
Activity 2.5 uM: 0.68
Activity 10 uM: 6.63

CC(C)Nc1nc(NC(C)C)c2cnn(-c3ccccc3)c2n1 [Compound 19143]
Activity 2.5 uM: 1.72
Activity 10 uM: 3.2

CCCCCCCCCCCCCCCCCC[n+]1ccc(C(C)CC)cc1.[Cl-] (stereo not drawn) [Compound 19763]
Activity 2.5 uM: 4.63
Activity 10 uM: 13.29

CCO[C@@H]([CH2][Hg][Cl])[C@](C)([CH2][Hg][Cl])OCC [Compound 21293]
Activity 2.5 uM: 3.16

CN(C)c1ccc(C2(Cl)c3ccccc3N(Cc3ccccc3)c3ccccc32)cc1.Cl [Compound 21533]
Activity 2.5 uM: 2.03
Activity 10 uM: 8.88

O=C(C=Cc1ccc([N+](=O)[O-])o1)C=Cc1ccc([N+](=O)[O-])o1 [Compound 21620]
Activity 2.5 uM: 0.74
Activity 10 uM: 16.28

c1ccc(-c2ccc(-c3cnc(-c4ccc(-c5ccccc5)cc4)o3)cc2)cc1 [Compound 24863]
Activity 2.5 uM: 1.87
Activity 10 uM: 3.22

CCCCN(CCCC)CCC(O)(c1ccc(OC)c2ccccc12)C(O)(CCN(CCCC)CCCC)c1ccc(OC)c2ccccc12.Cl (stereo not drawn) [Compound 26101]
Activity 2.5 uM: 0.78
Activity 10 uM: 4.13

Br.CCC1=C(C)/C(=C/c2[nH]c(C)c(CC)c2C)N=C1C [Compound 26672]
Activity 2.5 uM: 1.44
Activity 10 uM: 57.61

CCCCCCCCCCCCCCCC[N+](C)(C)CCCCCC(=O)OC.[Br-] [Compound 26847]
Activity 2.5 uM: 1.83
Activity 10 uM: 8.15

O=C1C=C(N2CC2)C(=O)C(N2CC2)=C1N1CC1 [Compound 29215]
Activity 2.5 uM: 36.4

Clc1ccc(-c2nc(-c3ccccc3)[nH]c2-c2ccc(Cl)c(Cl)c2)cc1Cl [Compound 30759]
Activity 2.5 uM: 0.88
Activity 10 uM: 6.9

COc1ccc2nc3cc(Cl)ccc3c(NCCCCN(C)C)c2c1.Cl [Compound 32929]
Activity 2.5 uM: 0.35
Activity 10 uM: 5.76

Cc1cc[n+](C2CCC3(C)C(=CCC4C3CCC3(C)C(C(C)CCCC(C)C)CCC43)C2)cc1.Cc1ccc(S(=O)(=O)[O-])cc1 (stereo not drawn) [Compound 32994]
Activity 2.5 uM: 2.83
Activity 10 uM: 6.52

CC(C)CCCC(C)C1CCC2C3CC=C4CC([n+]5cccc6ccccc65)CCC4(C)C3CCC12C.Cc1ccc(S(=O)(=O)[O-])cc1 (stereo not drawn) [Compound 32999]
Activity 2.5 uM: 2.41
Activity 10 uM: 6.87

COc1ccc2nc(CCc3ccccc3)ccc2c1 [Compound 35424]
Activity 2.5 uM: 2.55
Activity 10 uM: 3.07

CN1c2ccccc2C(c2ccccc2)c2ccc(Nc3ccccc3)cc21.Cl (stereo not drawn) [Compound 35730]
Activity 2.5 uM: 5.35
Activity 10 uM: 6.76

Cc1ccc(C(CN(C)C)C(=O)c2ccccc2)cc1C.Cl (stereo not drawn) [Compound 36684]
Activity 2.5 uM: 0.76
Activity 10 uM: 4.2

O=C1c2ccccc2C(=O)C2CC(c3ccccc3)=CCC12 (stereo not drawn) [Compound 38062]
Activity 2.5 uM: 2.61
Activity 10 uM: 5.58

CC1=CC(=O)C(C(C)C)=CC1=Nc1ccc(N(C)C)cc1 [Compound 39901]
Activity 2.5 uM: 1.41
Activity 10 uM: 4.1

CC(=O)Nc1ccccc1[As](O[As](c1ccccc1)c1ccccc1NC(C)=O)c1ccccc1 (stereo not drawn) [Compound 42108]
Activity 10 uM: 3.7

O=C(Nc1ccc2ccccc2c1)c1cc2ccccc2cc1O [Compound 42112]
Activity 2.5 uM: 3.76
Activity 10 uM: 3.76

CCN1/C(=C/c2cc(C)nc(-c3ccccc3)[n+]2C)C=Cc2ccccc21.[Cl-] [Compound 43683]
Activity 2.5 uM: 3.73
Activity 10 uM: 5.26

CC(=O)Nc1cc(OC(C)=O)c2ccccc2c1OC(C)=O [Compound 45171]
Activity 2.5 uM: 3.08

COc1ccc2c3c(ccc2c1)[C@@H]1C/C(=C(\OC(C)=O)C(F)(F)F)C(=O)[C@@]1(C)CC3 [Compound 45226]
Activity 2.5 uM: 3.03
Activity 10 uM: 7.27

CC(=O)OC1CCC2(C)C3CCC4(C)C(CCC4(Br)C(=O)CBr)C3CC(Br)C2(Br)C1 (stereo not drawn) [Compound 45884]
Activity 2.5 uM: 0.47
Activity 10 uM: 16.23

Oc1cccc(-c2ccc(-c3ccccc3)cc2)c1 [Compound 47145]
Activity 2.5 uM: 3.4
Activity 10 uM: 5.16

N#C/C(=C(\c1ccccc1)c1ccccn1)c1ccccc1 [Compound 50915]
Activity 2.5 uM: 1.11
Activity 10 uM: 7.81

O=Nc1c(O)ccc2ccccc12.[Fe].[Na+] [Compound 51522]
Activity 2.5 uM: 1.66
Activity 10 uM: 10.99

Cc1cc2c(C(C)C)c(O)c(O)c(C=Nc3cc(C(F)(F)F)ccc3Cl)c2c(O)c1-c1c(C)cc2c(C(C)C)c(O)c(O)c(C=Nc3cc(C(F)(F)F)ccc3Cl)c2c1O [Compound 52531]
Activity 2.5 uM: 0.8
Activity 10 uM: 5.18

O=C(Nc1ccc(Cl)cc1)C(Cl)C(Cl)c1ccccc1 (stereo not drawn) [Compound 54895]
Activity 5 uM: 4.288
Activity 10 uM: 4.975

O=C(/C=C/c1ccc(Cl)cc1)CC(Cl)c1ccc(Cl)cc1 (stereo not drawn) [Compound 54905]
Activity 5 uM: 11.56
Activity 10 uM: 16.011

CCCCCCCCCCCCCCCC[N+]1(C)CC2CCCCC2C1 (stereo not drawn) [Compound 55237]
Activity 5 uM: 3.4
Activity 10 uM: 6.6

CCCCCCCCCCCCCCCC[N+]1(CCCCCCCCCC)CC2CCCCC2C1.[I-] (stereo not drawn) [Compound 55240]
Activity 5 uM: 4.2
Activity 10 uM: 5.2

Cc1ccc(-c2cc(-c3ccccc3)[s+]c3ccc(C)cc23)cc1 [Compound 55867]
Activity 5 uM: 1.1
Activity 10 uM: 3.2

C[N+](C)=C1C=CC(=C2C=C(c3ccccc3)Oc3ccccc32)C=C1 [Compound 55869]
Activity 5 uM: 13.24
Activity 10 uM: 13.613

O=C(C[Si](CC(=O)c1cccc(C(F)(F)F)c1)CC(=O)c1cccc(C(F)(F)F)c1)c1cccc(C(F)(F)F)c1 [Compound 55879]
Activity 5 uM: 1.7
Activity 10 uM: 3.8

Cc1cc(C(O)(c2ccc(N)cc2)c2ccc(N)cc2)ccc1N.Nc1ccc(C(O)(c2ccc(N)cc2)c2ccc(N)cc2)cc1 [Compound 56345]
Activity 5 uM: 3.4
Activity 10 uM: 3.64

CCN(CCO)c1ccc(N=Nc2ccc([N+](=O)[O-])cc2)cc1 [Compound 57019]
Activity 5 uM: 5.388
Activity 10 uM: 5.441
